Results published in patent US20060069132A1, “Azolecarboxamide herbicides” (priority 2004, published 2006).

What was measured:
[1] = system: barnyardgrass; experiment: Test A pre-/postemergence herbicide test; type: in vivo, Echinochloa crus-galli
Procedure, shortened: (§1)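 Plants are held in greenhouse about ten days after treatment, then compared with untreated controls and scored 0 (no effect) to 100 (complete control). Preemergence dosing is a directed soil spray on sown sandy loam; postemergence dosing is spray to runoff at 2–10 cm height.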

[2] = system: large crabgrass; experiment: Test A pre-/postemergence herbicide test; type: in vivo, Digitaria sanguinalis
Procedure, shortened: as §1

[3] = system: giant foxtail; experiment: Test A pre-/postemergence herbicide test; type: in vivo, Setaria faberi
Procedure, shortened: as §1

[4] = system: morningglory; experiment: Test A pre-/postemergence herbicide test; type: in vivo, Ipomoea spp.
Procedure, shortened: as §1

[5] = system: redroot pigweed; experiment: Test A pre-/postemergence herbicide test; type: in vivo, Amaranthus retroflexus
Procedure, shortened: as §1

[6] = system: velvetleaf; experiment: Test A pre-/postemergence herbicide test; type: in vivo, Abutilon theophrasti
Procedure, shortened: as §1

[7] = system: barnyardgrass; experiment: Test B pre-/postemergence herbicide test; type: in vivo, Echinochloa crus-galli; settings: for Barnyardgrass plant response rating: postemergence
Procedure, shortened: (§2)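 Flooded paddy rice and barnyardgrass were treated at the 2-leaf stage; upland plantings received compound either on sown seed or on 1- to 4-leaf seedlings. All were kept 13–15 days in a greenhouse and scored visually, 0–100, relative to untreated plants.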

[8] = system: Surinam grass; experiment: Test B pre-/postemergence herbicide test; type: in vivo, Urochloa decumbens; settings: for Surinam Grass plant response rating: postemergence
Procedure, shortened: (§3)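 Test chemicals in a non-phytotoxic solvent mixture with surfactant were applied preemergence to seeded species and postemergence to plants 2-18 cm tall (1- to 4-leaf stage); rice and barnyardgrass were also tested in a flooded paddy at the 2-leaf stage. Visual rating versus controls after 13-15 days in greenhouse, scale 0 (no effect) to 100 (complete control).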

[9] = system: cocklebur; experiment: Test B pre-/postemergence herbicide test; type: in vivo, Xanthium strumarium; settings: for Cocklebur plant response rating: postemergence
Procedure, shortened: as §2

[10] = system: corn; experiment: Test B pre-/postemergence herbicide test; type: in vivo, Zea mays; settings: for Corn plant response rating: postemergence
Procedure, shortened: as §3

[11] = system: large crabgrass; experiment: Test B pre-/postemergence herbicide test; type: in vivo, Digitaria sanguinalis; settings: for Crabgrass, Large plant response rating: postemergence
Procedure, shortened: as §3

[12] = system: giant foxtail; experiment: Test B pre-/postemergence herbicide test; type: in vivo, Setaria faberi; settings: for Foxtail, Giant plant response rating: postemergence
Procedure, shortened: as §3

[13] = system: lambsquarters; experiment: Test B pre-/postemergence herbicide test; type: in vivo, Chenopodium album; settings: for Lambsquarters plant response rating: postemergence
Procedure, shortened: as §3

[14] = system: morningglory; experiment: Test B pre-/postemergence herbicide test; type: in vivo, Ipomoea coccinea; settings: for Morningglory plant response rating: postemergence
Procedure, shortened: as §2

[15] = system: pigweed; experiment: Test B pre-/postemergence herbicide test; type: in vivo, Amaranthus retroflexus; settings: for Pigweed plant response rating: postemergence
Procedure, shortened: as §3

[16] = system: rice; experiment: Test B pre-/postemergence herbicide test; type: in vivo, Oryza sativa; settings: 0 = no effect, 100 = complete control, preemergence
Procedure, shortened: as §3

[17] = system: velvetleaf; experiment: Test B pre-/postemergence herbicide test; type: in vivo, Abutilon theophrasti; settings: for Velvetleaf plant response rating: postemergence
Procedure, shortened: as §3

[18] = system: blackgrass; experiment: Test B postemergence herbicide test; type: in vivo, Alopecurus myosuroides; settings: postemergence
Procedure, shortened: (§4)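 After treating 2-leaf paddy plants or 2–18 cm postemergence plants (1 to 4 leaves) with formulated chemical, researchers kept them in a greenhouse for 13–15 days. Effects were judged visually versus controls: 0 indicates none, 100 total control.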

[19] = system: wheat; experiment: Test B postemergence herbicide test; type: in vivo, Triticum aestivum; parameters: key to Wheat plant response rating: 0 = no effect, 100 = complete control; settings: postemergence
Procedure, shortened: (§5)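 Treated at 2-leaf (paddy) or 1–4-leaf, 2–18 cm (postemergence); greenhouse 13–15 d; visual score vs control, 0 none to 100 complete control; dash = not tested.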

[20] = system: wild oat; experiment: Test B postemergence herbicide test; type: in vivo, Avena fatua; settings: postemergence
Procedure, shortened: as §5

[21] = system: rice; experiment: Test B flooded paddy test; type: in vivo, Oryza sativa; settings: 1000 g ai/ha, scale 0 to 100 (0 no effect, 100 complete control)
Procedure, shortened: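 Paddy species grown to the 2-leaf stage under flooding; blackgrass sprayed postemergence at 2–18 cm (1- to 4-leaf stage). Plants kept in a greenhouse for 13 to 15 days, then visually rated against controls on 0 (no effect) to 100 (complete control).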

[22] = system: small flower umbrella sedge; experiment: Test B flooded paddy test; type: in vivo, Cyperus difformis; settings: 1000 g ai/ha, scale 0 to 100 (0 no effect, 100 complete control)
Procedure, shortened: as §4

[23] = system: ducksalad; experiment: Test B flooded paddy test; type: in vivo, Heteranthera limosa; settings: 1000 g ai/ha, scale 0 to 100 (0 no effect, 100 complete control)
Procedure, shortened: as §4

[24] = system: barnyardgrass; experiment: Test B flooded paddy test; type: in vivo, Echinochloa crus-galli; settings: 1000 g ai/ha, scale 0 to 100 (0 no effect, 100 complete control)
Procedure, shortened: as §4

[25] = Postemergence, 500 g ai/ha, 0 to 100 scale, 0 no effect, 100 complete control
[26] = Postemergence, 2000 g ai/ha, 0 to 100 scale, 0 no effect, 100 complete control
[27] = Preemergence, 2000 g ai/ha, visual rating, 0 to 100 scale (0 no effect, 100 complete control)
[28] = preemergence, 500 g ai/ha, visual injury, 0 to 100 scale (0 no effect, 100 complete control)
[29] = 125 g ai/ha, 0 = no effect, 100 = complete control, preemergence
[30] = 500 g ai/ha, visual rating, 0 = no effect, 100 = complete control, preemergence
[31] = 125 g ai/ha, visual rating, scale 0 (no effect) to 100 (complete control)
[32] = 500 g ai/ha, scale 0 to 100, 0 is no effect, 100 is complete control

Question: With CCn1nc(C(C)(C)C)cc1C(=O)Nc1ccnc(C(=O)NCCF)c1 [Compound 284] as the molecule, how does the “Barnyardgrass plant response rating” value [1, 25] read?
Answer: 30

Question: What about the “Plant response rating, Barnyardgrass” value [1, 26] of the same molecule?
Answer: 60

Question: What about the “Barnyardgrass plant response rating” value [1, 27] of the same molecule?
Answer: 85

Question: And the “Barnyardgrass plant response rating” value [1, 28]?
Answer: 10

Question: What about the “Crabgrass, Large plant response rating” value [2, 25] of the same molecule?
Answer: 20

Question: And the “Plant response rating, Crabgrass, Large” value [2, 26]?
Answer: 20

Question: And the “Crabgrass, Large plant response rating” value [2, 27]?
Answer: 80

Question: What about the “Crabgrass, Large plant response rating” value [2, 28] of the same molecule?
Answer: 15

Question: And the “Foxtail, Giant plant response rating” value [3, 25]?
Answer: 20

Question: What about the “Plant response rating, Foxtail, Giant” value [3, 26] of the same molecule?
Answer: 35

Question: What about the “Foxtail, Giant plant response rating” value [3, 27] of the same molecule?
Answer: 55

Question: What about the “Foxtail, Giant plant response rating” value [3, 28] of the same molecule?
Answer: 20

Question: And the “Morningglory plant response rating” value [4, 25]?
Answer: 10

Question: And the “Plant response rating, Morningglory” value [4, 26]?
Answer: 15

Question: And the “Morningglory plant response rating” value [4, 27]?
Answer: 5

Question: What about the “Morningglory plant response rating” value [4, 28] of the same molecule?
Answer: 0

Question: And the “Pigweed plant response rating” value [5, 25]?
Answer: 95

Question: And the “Plant response rating, Pigweed” value [5, 26]?
Answer: 100

Question: What about the “Pigweed plant response rating” value [5, 27] of the same molecule?
Answer: 100

Question: And the “Pigweed plant response rating” value [5, 28]?
Answer: 85

Question: What about the “Velvetleaf plant response rating” value [6, 25] of the same molecule?
Answer: 30

Question: What about the “Plant response rating, Velvetleaf” value [6, 26] of the same molecule?
Answer: 35

Question: What about the “Velvetleaf plant response rating” value [6, 27] of the same molecule?
Answer: 40

Question: What about the “Velvetleaf plant response rating” value [6, 28] of the same molecule?
Answer: 10

Question: And the “Barnyardgrass plant response rating (0 to 100 scale)” value [7, 29]?
Answer: 0

Question: And the “Plant response rating, Barnyardgrass” value [7, 30]?
Answer: 80

Question: What about the “Barnyardgrass plant response rating” value [7, 31] of the same molecule?
Answer: 0

Question: And the “Barnyardgrass plant response rating” value [7, 32]?
Answer: 0

Question: What about the “Surinam Grass plant response rating (0 to 100 scale)” value [8, 29] of the same molecule?
Answer: 0

Question: And the “Plant response rating, Surinam Grass” value [8, 30]?
Answer: 10

Question: What about the “Surinam Grass plant response rating” value [8, 31] of the same molecule?
Answer: 0

Question: And the “Surinam Grass plant response rating” value [8, 32]?
Answer: 20

Question: What about the “Cocklebur plant response rating (0 to 100 scale)” value [9, 29] of the same molecule?
Answer: 0

Question: And the “Plant response rating, Cocklebur” value [9, 30]?
Answer: 0

Question: And the “Cocklebur plant response rating” value [9, 31]?
Answer: 0

Question: And the “Cocklebur plant response rating” value [9, 32]?
Answer: 0

Question: What about the “Corn plant response rating (0 to 100 scale)” value [10, 29] of the same molecule?
Answer: 0

Question: And the “Plant response rating, Corn” value [10, 30]?
Answer: 0

Question: And the “Corn plant response rating” value [10, 31]?
Answer: 0

Question: And the “Corn plant response rating” value [10, 32]?
Answer: 10

Question: And the “Crabgrass, Large plant response rating (0 to 100 scale)” value [11, 29]?
Answer: 0

Question: And the “Plant response rating, Crabgrass, Large” value [11, 30]?
Answer: 90

Question: And the “Crabgrass, Large plant response rating” value [11, 31]?
Answer: 0

Question: And the “Crabgrass, Large plant response rating” value [11, 32]?
Answer: 10

Question: And the “Foxtail, Giant plant response rating (0 to 100 scale)” value [12, 29]?
Answer: 0

Question: And the “Plant response rating, Foxtail, Giant” value [12, 30]?
Answer: 10

Question: What about the “Foxtail, Giant plant response rating” value [12, 31] of the same molecule?
Answer: 0

Question: And the “Foxtail, Giant plant response rating” value [12, 32]?
Answer: 0

Question: And the “Lambsquarters plant response rating (0 to 100 scale)” value [13, 29]?
Answer: 90

Question: And the “Plant response rating, Lambsquarters” value [13, 30]?
Answer: 100

Question: And the “Lambsquarters plant response rating” value [13, 31]?
Answer: 50

Question: And the “Lambsquarters plant response rating” value [13, 32]?
Answer: 50

Question: And the “Morningglory plant response rating (0 to 100 scale)” value [14, 29]?
Answer: 0

Question: And the “Plant response rating, Morningglory” value [14, 30]?
Answer: 0

Question: What about the “Morningglory plant response rating” value [14, 31] of the same molecule?
Answer: 0

Question: What about the “Morningglory plant response rating” value [14, 32] of the same molecule?
Answer: 0

Question: And the “Pigweed plant response rating (0 to 100 scale)” value [15, 29]?
Answer: 90

Question: And the “Plant response rating, Pigweed” value [15, 30]?
Answer: 100

Question: And the “Pigweed plant response rating” value [15, 31]?
Answer: 60

Question: And the “Pigweed plant response rating” value [15, 32]?
Answer: 70

Question: And the “Rice plant response rating (0 to 100 scale)” value ([16]; 125 g ai/ha)?
Answer: 0

Question: What about the “Plant response rating, Rice” value ([16]; 500 g ai/ha, visual rating) of the same molecule?
Answer: 20

Question: And the “Velvetleaf plant response rating (0 to 100 scale)” value [17, 29]?
Answer: 0

Question: What about the “Plant response rating, Velvetleaf” value [17, 30] of the same molecule?
Answer: 60

Question: What about the “Velvetleaf plant response rating” value [17, 31] of the same molecule?
Answer: 0

Question: And the “Velvetleaf plant response rating” value [17, 32]?
Answer: 0

Question: And the “Blackgrass plant response rating” value [18, 31]?
Answer: 20

Question: And the “Blackgrass plant response rating” value [18, 32]?
Answer: 40

Question: And the “Wheat plant response rating” value [19, 31]?
Answer: 20

Question: And the “Wheat plant response rating” value [19, 32]?
Answer: 30

Question: And the “Oat, Wild plant response rating” value [20, 31]?
Answer: 10

Question: What about the “Oat, Wild plant response rating” value [20, 32] of the same molecule?
Answer: 30

Question: What about the “Rice plant response rating” value [21] of the same molecule?
Answer: 10

Question: And the “Sedge, Umbrella plant response rating” value [22]?
Answer: 0

Question: What about the “Ducksalad plant response rating” value [23] of the same molecule?
Answer: 70

Question: What about the “Barnyardgrass plant response rating” value [24] of the same molecule?
Answer: 30
